From US20240307409A1, “ARGININE METHYLTRANSFERASE INHIBITOR AND USE THEREOF” (Cytosinlab Therapeutics Co., Ltd., priority 2021, published 2024)

Tests used:
Assay type in all cases: biochemical
PRMT5 = PRMT5 (Homo sapiens, UniProt O14744); assay: PRMT panel selectivity test, PRMT5
Method: [The procedure below names another target; the source says it served here with some conditions changed.] PRMT1 enzyme activity test were performed in a buffer prepared on the same day 5 consisting of 10 mMTirs-HCl (pH=8.0), 0.01% Tween-20 and 1 mM DTT. The compounds were prepared to the highest inhibitor concentration ultimately required in the 100× reaction with 100% DMSO and then transferred to one well of a 384-well Echo plate (Echo-eligible 384-well polypropylene microplates 2.0, transparent, flat-bottomed) and sequentially diluted in the next well with a 3-fold dilution of 100% DMSO, and so on, with a total of 10 concentrations based on Precision. 100% DMSO was added to two empty wells to serve as control well without compound and control well without enzyme in the same 384-well Echo plate. 250 nL of compound was transferred from each well of the 384-well Echo plate to a 384-well assay plate (384-well polypropylene storage microplate) via the Echo 550 liquid processor. For wells with compounds and control well without compound, a mixture (15 uL) containing PRMT1 enzyme was added to the 384-well assay plate. For control wells without enzyme, the mixture containing the assay buffer (15 uL) was added instead. The compounds were allowed to incubate with PRMT1 for 15 minutes at room temperature, and then a mixture containing ^3H-SAM and peptide (10 uL) was added to start the reaction (final volume=25 uL). […] After 120 min of incubation, the assay was terminated by the addition of non-radiolabeled SAM (5 uL) to a final concentration of 125 uM, which diluted 3H-SAM to a level at which its incorporation into the peptide substrate was no longer detected. […] Plates were read on a microplate counter (MicroBeta2) to measure the amount of ^3H-labeled peptide bound to the surface of the detection plate, measured in counts per minute (cpm).
The raw data were copied from the Reader and the inhibition values were calculated in Excel by Equation (1), Equation (1): Inh %=(CPMmax−CPMcmpd)/(CPMmax−CPMmin)*100, wherein the Max signal was obtained from the enzyme-substrate interaction and the Min signal was obtained from the substrate. […]

PRMT6 = PRMT6 (Homo sapiens, UniProt Q96LA8); assay: PRMT panel selectivity test, PRMT6
Method: [The procedure below names another target; the source says it served here with some conditions changed.] (§1) This experiment was assayed in a buffer prepared on the same day consisting of 10 mMTirs-HCl (pH=8.0), […] and 1 mM DTT. The compounds were prepared to the highest inhibitor concentration ultimately required in the 100× reaction with 100% DMSO and then transferred to one well of a 384-well Echo plate (Echo-eligible 384-well polypropylene microplates 2.0, transparent, flat-bottomed) and sequentially diluted in the next well with a 3-fold dilution of 100% DMSO, and so on, with a total of 10 concentrations based on Precision. 100% DMSO was added to two empty wells as control well without compound and control well without enzyme in the same 384-well Echo plate. 100 nL of compound was transferred from each well of the 384-well Echo plate to a 384-well assay plate (OptiPlate (384-well, white)) via the Echo 550 liquid processor. For wells with compounds and control well without compound, a mixture containing PRMT1 enzyme (5 uL) was added to the 384-well assay plate. For control well without enzyme, a mixture containing test buffer (5 uL) was added instead. The compounds were allowed to incubate with PRMT3 for 15 minutes at room temperature, and then a mixture containing cold SAM and peptide (5 uL) was added to start the reaction (final volume=10 uL). The final concentrations of the components were as follows: 0.1 nM for PRMT3, 15 uM for SAM, 0.05 uM for peptide, and 1% DMSO. After 60 min of incubation at room temperature, the reaction was terminated by the addition of donor and acceptor magnetic beads (15 uL) with a final concentration of 10 ug/mL diluted with AlphaLISA Epigenetics Buffer. The 384-well assay plate was incubated at room temperature for 60 min and the relative fluorescence units (RFU) were nextly determined using a multi-mode plate reader in Alpha mode (Ex680/Em615).
(§2) Curve fitting: the raw data were copied from Reader and the inhibition values were calculated in Excel by equation (1). […]

PRMT3 = PRMT3 (Homo sapiens, UniProt O60678); assay: PRMT panel selectivity test, PRMT3; conditions: AlphaLISA
Method: as §1, §2

PRMT1 = PRMT1 (Homo sapiens, UniProt Q99873); assay: PRMT1 enzyme activity test; conditions: 0.5 nM PRMT1, 3H-SAM, peptide
How it was run: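 Radiometric methylation assay: 0.5 nM PRMT1 preincubated 15 min at room temperature with compound (10-point 3-fold series, 1% DMSO) in pH 8.0 Tris buffer with Tween-20 and DTT. 0.25 uM ³H-SAM and 0.1 uM biotinylated peptide then reacted 120 min. Product captured on streptavidin FlashPlate and counted; IC50 from four-parameter fit of % inhibition.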

Chain of PRMT6 (Q96LA8 whole entry): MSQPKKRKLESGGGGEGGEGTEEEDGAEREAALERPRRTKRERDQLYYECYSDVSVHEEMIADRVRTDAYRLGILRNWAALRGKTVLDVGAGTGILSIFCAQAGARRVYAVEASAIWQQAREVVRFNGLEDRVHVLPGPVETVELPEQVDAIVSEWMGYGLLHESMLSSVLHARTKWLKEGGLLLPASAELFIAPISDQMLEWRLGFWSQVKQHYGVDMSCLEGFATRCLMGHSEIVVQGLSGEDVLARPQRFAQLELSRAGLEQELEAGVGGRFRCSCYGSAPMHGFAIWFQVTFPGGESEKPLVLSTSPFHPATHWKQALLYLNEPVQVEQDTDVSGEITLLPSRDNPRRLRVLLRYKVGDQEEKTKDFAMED
Chain of PRMT3 (O60678 whole entry): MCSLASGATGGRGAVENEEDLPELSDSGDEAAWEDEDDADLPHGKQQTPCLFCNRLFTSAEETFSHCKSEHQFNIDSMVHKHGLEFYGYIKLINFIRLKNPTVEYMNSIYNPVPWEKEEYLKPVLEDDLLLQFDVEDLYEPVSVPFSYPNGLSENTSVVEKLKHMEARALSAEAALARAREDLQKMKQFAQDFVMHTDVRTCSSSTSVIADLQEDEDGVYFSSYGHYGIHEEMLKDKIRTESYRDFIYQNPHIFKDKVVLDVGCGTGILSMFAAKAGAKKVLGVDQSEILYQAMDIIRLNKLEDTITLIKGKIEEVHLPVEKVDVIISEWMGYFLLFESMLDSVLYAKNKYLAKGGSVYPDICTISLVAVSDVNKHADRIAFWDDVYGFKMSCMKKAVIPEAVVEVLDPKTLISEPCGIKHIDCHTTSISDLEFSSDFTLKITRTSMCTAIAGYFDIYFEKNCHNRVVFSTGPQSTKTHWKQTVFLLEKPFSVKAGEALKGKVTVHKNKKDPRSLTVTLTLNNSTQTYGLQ
Chain of PRMT1 (Q99873 whole entry): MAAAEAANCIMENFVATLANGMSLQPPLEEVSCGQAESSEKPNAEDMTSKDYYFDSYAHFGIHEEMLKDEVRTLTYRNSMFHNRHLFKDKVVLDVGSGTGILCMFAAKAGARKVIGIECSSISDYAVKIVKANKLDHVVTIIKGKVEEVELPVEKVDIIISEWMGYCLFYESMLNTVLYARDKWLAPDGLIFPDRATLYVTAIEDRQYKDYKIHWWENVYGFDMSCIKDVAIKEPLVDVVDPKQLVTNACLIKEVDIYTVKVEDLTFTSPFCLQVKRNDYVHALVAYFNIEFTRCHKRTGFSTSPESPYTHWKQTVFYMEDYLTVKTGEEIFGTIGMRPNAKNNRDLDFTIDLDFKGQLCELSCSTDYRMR
Chain of PRMT5 (O14744 whole entry, species assumed): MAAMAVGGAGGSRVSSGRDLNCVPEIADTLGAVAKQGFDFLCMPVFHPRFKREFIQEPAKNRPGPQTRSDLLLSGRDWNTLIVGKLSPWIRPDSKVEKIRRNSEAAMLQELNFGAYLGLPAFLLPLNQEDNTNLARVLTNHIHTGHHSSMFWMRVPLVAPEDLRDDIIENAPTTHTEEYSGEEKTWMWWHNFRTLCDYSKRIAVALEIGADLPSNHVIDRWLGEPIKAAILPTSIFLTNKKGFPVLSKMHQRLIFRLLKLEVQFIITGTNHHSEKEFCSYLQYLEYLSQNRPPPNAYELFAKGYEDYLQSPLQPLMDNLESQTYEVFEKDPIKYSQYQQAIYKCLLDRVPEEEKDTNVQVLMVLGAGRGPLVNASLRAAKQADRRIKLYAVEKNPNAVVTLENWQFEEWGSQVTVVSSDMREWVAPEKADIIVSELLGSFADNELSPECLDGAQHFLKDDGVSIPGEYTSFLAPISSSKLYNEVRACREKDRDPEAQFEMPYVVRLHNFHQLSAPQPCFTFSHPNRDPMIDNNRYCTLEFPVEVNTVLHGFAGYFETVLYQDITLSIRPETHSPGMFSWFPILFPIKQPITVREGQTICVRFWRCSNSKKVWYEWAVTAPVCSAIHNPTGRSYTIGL
Chain of PRMT5 (Q9BQA1 whole entry partner, species assumed): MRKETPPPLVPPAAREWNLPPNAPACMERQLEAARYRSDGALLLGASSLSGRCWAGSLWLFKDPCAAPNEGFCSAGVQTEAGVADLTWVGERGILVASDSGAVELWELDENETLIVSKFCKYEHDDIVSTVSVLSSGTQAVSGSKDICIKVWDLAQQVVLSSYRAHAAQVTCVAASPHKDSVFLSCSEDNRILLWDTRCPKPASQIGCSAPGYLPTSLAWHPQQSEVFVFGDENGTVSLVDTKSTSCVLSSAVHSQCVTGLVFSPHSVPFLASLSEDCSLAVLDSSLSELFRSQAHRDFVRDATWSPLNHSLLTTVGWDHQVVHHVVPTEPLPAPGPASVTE

IC50 (PRMT5) [nM]	IC50 (PRMT6) [nM]	IC50 (PRMT3) [nM]	IC50 (PRMT1) [nM]	SMILES
≥ 10000	< 50	< 50	< 50	CNCCN(C)Cc1ccccc1C1CCN(c2ccccc2)CC1 [P023]
≥ 10000	< 50	50 to 500	< 50	CNCCN(C)Cc1ncccc1N1CCc2ccccc2CC1 [P118]
≥ 10000	< 50	50 to 500	< 50	CCOCC1(COCC)CCC(c2cccnc2CN(C)CCNC)CC1 [P207]
